Source: ChEMBL document CHEMBL1212909, “Lactones and quinones from the tubers of Sinningia aggregata” (2010)

Columns and labels:
Candida dubliniensis [1] = assay: Antifungal activity against Candida dubliniensis ATCC 778157 by broth microdilution method
Candida dubliniensis [2] = assay: Antifungal activity against Candida dubliniensis ATCC 777 by broth microdilution method

SMILES	MIC (Candida dubliniensis [1]) [µg/mL]	MIC (Candida dubliniensis [2]) [µg/mL]
Cc1ccc2c(c1)C(=O)c1ccccc1C2=O [TECTOQUINONE]	> 100	> 100
COc1ccc2c(c1)C(=O)c1cc(C)ccc1C2=O	> 100	> 100
Cc1ccc2c(c1)C(=O)c1cc(O)ccc1C2=O	> 100	> 100
